A word on the inhibition: it is how much of the control response was suppressed.

For the assay, the system named is CellSensor T-REx NICD CSL-bla HeLa cell line (Notch response element driving beta-lactamase reporter). Kind of assay: Notch assay (CSL-bla beta-lactamase reporter, DOX-inducible NICD). The format is cell-based. Particulars: Homo sapiens; 10 μM compound; HeLa/T-REx NICD CSL-bla cells, doxycycline-induced, 16-20 hours incubation; blue/green emission ratio. The protocol:
We used the CellSensor T-REx™ NICD CSL-bla HeLa cell line, which was engineered by lentiviral transduction of HeLa cells with a Notch response element driving beta-lactamase reporter gene expression (CSL-bla) along with DOX (doxycycline)-inducible NICD (Notch intracellular domain) constructs. Addition of DOX to these cells allows for regulated NICD transcription factor expression and subsequent beta-lactamase expression.
Specifically, the following protocol was used.
• 1. Plate Cells: 32 μL/well of HeLa/T-REx™ NICD CSL-bla cells at 10^3 cells/well complete medium into 384-well plate. • 2. Prepare 10× compounds in assay medium. • 3. Add 4 μL compounds or 1% DMSO in assay medium to the cells. • 4. Add 4 μL 10× Doxycycline in Assay Medium to the treated wells, and 4 μL Assay Medium to the Untreated and cell free control wells. • 5. Incubate the assay plate in a humidified 37° C./5% CO2 incubator for 16-20 hours. • 6. Preparation of 6× LiveBLAzer™-FRET B/G Substrate (CCF4-AM) Mixture according to the manual and cell loading should be done in the absence of direct strong lighting. • 7. Remove assay plate from the humidified 37° C./5% CO2 incubator. Add 8 μl of 6× Substrate Mixture from […] to each well. Cover the plate to protect it from light and evaporation. Incubate at room temperature for 4 hours. • 8. Reading an Assay Plate using the following filter selections:
• 9. Data analysis: Use the assay plate layout to identify the location of the Cell-free wells. These control wells are used for background subtraction. Determine the average emission from the Cell-free wells at both 460 nm (Average Blue Background) and 530 nm (Average Green Background). Subtract the Average Blue Background (data collected at 460 nm) from all of the blue emission data. Subtract the Average Green background (data collected at 530 nm) from all of the green emission data. Calculate the Blue/Green Emission Ratio for each well, by dividing the background-subtracted blue emission values by the background-subtracted green emission values.
Turning to `O=C1[C@H](Cc2ccc(O)cc2)CN2C(=O)c3sccc3N(C(=O)NCC3CCCCC3)C2CN1Cc1cccc2cccnc12` (stereo partly drawn) [ID-30, (8R)—N-(cyclohexylmethyl)-8-(4-hydroxybenzyl)-7,11-dioxo-6-(quinolin-8-ylmethyl)-4a,5,6,7,8,9-hexahydrothieno[3′,2′:4,5]pyrimido[1,2-a][1,4]diazepine-4(11H)-carboxamide], the inhibition at 10 µM worked out at 61.2%.
For `CCCCN1CC2N(C[C@@H](Cc3ccc(O)cc3)C1=O)C(=O)c1sccc1N2C(=O)NCc1ccc2c(c1)OCO2` (stereo partly drawn) [ID-32, (8R)—N-(benzo[d][1,3]dioxol-5-ylmethyl)-6-butyl-8-(4-hydroxybenzyl)-7,11-dioxo-4a,5,6,7,8,9-hexahydrothieno[3′,2′:4,5]pyrimido[1,2-a][1,4]diazepine-4(11H)-carboxamide], the inhibition at 10 µM is 52.5%.
As for `CC(C)CCN1CC2N(C[C@@H](Cc3ccc(O)cc3)C1=O)C(=O)c1sccc1N2C(=O)NCc1ccc2c(c1)OCO2` (stereo partly drawn) [ID-33, (8R)—N-(benzo[d][1,3]dioxol-5-ylmethyl)-8-(4-hydroxybenzyl)-6-isopentyl-7,11-dioxo-4a,5,6,7,8,9-hexahydrothieno[3′,2′:4,5]pyrimido[1,2-a][1,4]diazepine-4(11H)-carboxamide], the inhibition at 10 µM came to 68.2%.
The value for `CC(C)CCN1CC2N(C[C@@H](Cc3ccccc3)C1=O)C(=O)c1sccc1N2C(=O)NCc1ccc2c(c1)OCO2` (stereo partly drawn) [ID-34, (8R)—N-(benzo[d][1,3]dioxol-5-ylmethyl)-8-benzyl-6-isopentyl-7,11-dioxo-4a,5,6,7,8,9-hexahydrothieno[3′,2′:4,5]pyrimido[1,2-a][1,4]diazepine-4(11H)-carboxamide] was 52.4%; that for `CC(C)[C@@H]1CN2C(=O)c3sccc3N(C(=O)NCc3cccs3)C2CN(Cc2ccc3ccccc3c2)C1=O` (stereo partly drawn) [ID-35, (8R)-8-isopropyl-6-(naphthalen-2-ylmethyl)-7,11-dioxo-N-(thiophen-2-ylmethyl)-4a,5,6,7,8,9-hexahydrothieno[3′,2′:4,5]pyrimido[1,2-a][1,4]diazepine-4(11H)-carboxamide] was 54.9%.
The value for `CCCCN1CC2N(C[C@@H](Cc3ccc(O)cc3)C1=O)C(=O)c1sccc1N2C(=O)NCc1ccc(C)cc1` (stereo partly drawn) [ID-36, (8R)-6-butyl-8-(4-hydroxybenzyl)-N-(4-methylbenzyl)-7,11-dioxo-4a,5,6,7,8,9-hexahydrothieno[3′,2′:4,5]pyrimido[1,2-a][1,4]diazepine-4(11H)-carboxamide] was 55.9%; that for `Cc1ccc(CNC(=O)N2c3ccsc3C(=O)N3C[C@@H](Cc4ccc(O)cc4)C(=O)N(CCC(C)C)CC32)cc1` (stereo partly drawn) [ID-37, (8R)-8-(4-hydroxybenzyl)-6-isopentyl-N-(4-methylbenzyl)-7,11-dioxo-4a,5,6,7,8,9-hexahydrothieno[3′,2′:4,5]pyrimido[1,2-a][1,4]diazepine-4(11H)-carboxamide] was 66.3%; that for `CC(C)COC(=O)N1c2ccsc2C(=O)N2C[C@@H](Cc3ccc(O)cc3)C(=O)N(Cc3cccc4ccccc34)CC21` (stereo partly drawn) [ID-38, isobutyl (8R)-8-(4-hydroxybenzyl)-6-(naphthalen-1-ylmethyl)-7,11-dioxo-4a,5,6,7,8,9-hexahydrothieno[3′,2′:4,5]pyrimido[1,2-a][1,4]diazepine-4(11H)-carboxylate] was 52.4%.

The values above are taken from patent publication US20250250282A1, “NOVEL SEVEN-MEMBERED RING-FUSED COMPOUNDS” (PRISM Biolab Co., Ltd., priority 2022, published 2025).
